Experimental data reported in US12691086B2, “Methods of treating systemic sclerosis and idiopathic pulmonary fibrosis” (HORIZON THERAPEUTICS IRELAND DAC, priority 2022, dated 2026).
“Also recorded” adds a separate entry of the source. Like-named read-outs stand apart in the source and are kept apart here.

Experiments:
[1] = test system: patients with early dcSSc; experiment: 8-week double-blind, placebo-controlled study with 16-week open-label extension in dcSSc; format: in vivo, human
Description: The primary end point was safety during the double-blind phase of the trial. Exploratory end points included the identification of an LPA-induced gene signature in patients' skin.
Seventeen of 32 patients were randomly assigned to receive placebo and 15 to receive Compound I. Thirty patients participated in the open-label extension study. […] At week 8, the reduction in MRSS was numerically greater in the Compound I group than in the placebo group (mean±SD change −3.57±4.18 versus −2.76±4.85; treatment effect −1.2 [95% confidence interval −4.37, 2.02]).

[2] = test system: patients with early dcSSc; conditions: Allanore et al. 2018, cited from earlier work
[3] = test system: bleomycin-induced skin fibrosis; experiment: Bleomycin-induced skin fibrosis model, therapeutic protocol; format: in vivo, mouse; conditions: 50 mg/kg/day
Description: Two models of skin fibrosis were used to evaluate the effect of Compound I in comparison with imatinib mesylate, used as a reference.

[4] = Food effect on PK at 450 mg single dose in healthy adult subjects; format: in vivo, human; conditions: for AUC(0-inf) / AUC(0-t) / Cmax: human, plasma, oral; for AUC(0-inf): read-out: AUC0-inf, Geometric LSM; for AUC(0-t): read-out: AUC0-last, Geometric LSM; for Cmax: read-out: Cmax, Geometric LSM
Protocol: (§1) The PK of Compound I and food effect were evaluated in an open-label study in healthy volunteers to inform the dose and dosing condition of the tablet formulations used in the clinical studies. Dose proportionality and food effect were evaluated using a 2-way, 2-period crossover design in two cohorts:150 mg and 300 mg single dose under fasting condition in Cohort 1 and 450 mg single dose under fasting and high-fat, high calorie meal condition in Cohort 2. Multiple-dose PK was evaluated using a 2-period, fixed sequence crossover design. Subjects received Compound I twice a day (BID) of 300 mg (Cohort 3) or 450 mg (Cohort 4) administered with low-fat meals in Period 1 and with high-fat meals in Period 2.
(§2) PK sample collections: For cohort 1 and 2, blood samples were collected at predose, 0.5, 1, 2, 3, 4, 6, 8, 12, 24, 36, 48, 72, 96 and 120 h post dose. For cohort 3 and 4, blood samples were collected at predose, 0.5, 1, 2, 4, 5, 12 hrs after the first dose on Day 1. After the last dose on Day 5, PK samples were taken at predose, 0.5, 1, 2, 4, 6, 12, 24, 36, 60, 84, 108 hr in Period 1 and predose, 0.5, 1, 2, 4, 6, 12 hours post last dose in Period 2.
(§3) Plasma concentrations of Compound I were determined using a validated high performance liquid chromatography-tandem mass spectrometry (HPLC MS/MS) method. The analytical range of Compound I were 250-50,000 ng/mL (high range) and […] (low range). Dose-proportionality of pharmacokinetic parameters were examined by analysis of variance (ANOVA) where the AUC0-last, AUC0-inf, and Cmax parameters were dose normalized. 90% confidence intervals (CIs) were derived by exponentiation of the CIs obtained for the difference between the treatment LSMs (Least square means). Dose proportionality was established if the 90% CI for the ratio of the geometric means for the dose-normalized parameters lay within the limits of (0.7, 1.43).
Food effect was evaluated using ANOVA on the ln-transformed PK parameters. The ANOVA model included sequence, treatment, and period as fixed effects and subject nested within sequence as a random effect. Geometric least square means, geometric mean ratio (High fat vs. fasted) and 90% confidence interval of PK parameters (AUC and Cmax) were calculated from the ANOVA model.

thrombosis = experiment: Model of thrombosis in mouse; format: in vivo; conditions: one model in mouse
[5] = Multiple-dose (BID) PK at steady state with meals in healthy adult subjects; format: in vivo, human; conditions: for t1/2 / half-life: median; for Ctrough / AUC / Cmax: steady state, mean (% CV); for AUC / Cmax / half-life: human, plasma, oral
Protocol: as §1, §2, §3

[6] = 24-weeks of continuous treatment
[7] = Subjects switched from placebo to Compound I, 16-week open label extension
[8] = therapeutic protocol, mouse skin
[9] = Fed (high-fat, high-calorie meal)
[10] = 300 mg BID, High-fat reduced calorie meal
[11] = 450 mg BID, High-fat high calorie meal
[12] = 300 mg, 300 mg BID, High-fat reduced calorie meal
[13] = 300 mg, 300 mg BID, Low-fat meal
[14] = 450 mg, 450 mg BID, High-fat high calorie meal
[15] = 450 mg, 450 mg BID, Low-fat meal

COc1ccc(C(=O)NC2(C(=O)O)Cc3ccccc3C2)cc1OCCc1cccc(C)c1 [Compound I, 2-(4-methoxy-3-(3-methylphenethoxy)benzamido)-2,3-dihydro-1H-indene-2-carboxylic acid]
Median Decrease in mRSS [1, 6]: −7.5
Responder Rate [1, 6]: 78.6%
Median Decrease in mRSS [1, 7]: −7.0
Responder Rate [1, 7]: 69.2%
most frequent adverse events ([1]; blinded phase): headache, diarrhea, nausea, and falling
MRSS during the study ([1]; in vivo): improved during the study although the difference was not significant
disease biomarkers (COMP and TSP1) ([1]; initial Compound I group, treatment up to 24 weeks): numerical improvement versus baseline
LPA-related genes, biomarker analysis of skin biopsies ([1]; open label extension): reductions in LPA-related genes
safety profile ([1]; open-label extension): acceptable
tolerability ([1]; patients with dcSSc): well tolerated
reduction of LPA-related genes in skin samples versus placebo group ([1]; week 8): greater reduction
treatment effect on MRSS versus placebo ([1]; week 8): −1.2
change in MRSS, mean±SD ([1]; week 8, double-blind phase): −3.57±4.18
HAQ-DI (functional disability) ([1]; week 24): clinically significant improvement
most frequent treatment-emergent adverse events (TEAEs) ([2]; 8-week double-blind period): headache, diarrhea, nausea and fall
tolerability ([2]; about 300 mg BID up to 24 weeks): well tolerated
clinical outcome measures (mRSS, HAQ-DI, SHAQ components, disease severity VAS, pruritus VAS) ([2]; about 300 mg BID): improved outcome measures; also recorded: numerical improvement
target engagement [2]: demonstrated target engagement
effect on these markers versus imatinib reference [3]: comparable with the effects of imatinib
collagen content [3, 8]: able to reverse
dermal thickness [3, 8]: able to reverse
myofibroblast differentiation [3, 8]: able to reverse
Cmax, GMR fed vs fasted [4]: 190.85%
AUC(0-inf) ([4]; Fasted): 117 µg·h/mL
AUC(0-t) ([4]; Fasted): 116 µg·h/mL
Cmax ([4]; Fasted): 14000 ng/mL
AUC(0-inf) [4, 9]: 248 µg·h/mL
AUC(0-t) [4, 9]: 246 µg·h/mL
Cmax [4, 9]: 26700 ng/mL
antithrombotic activity (thrombosis): demonstrated antithrombotic activity
t1/2 [5, 10]: 24.6 h
Ctrough [5, 10]: 8627 (17%) ng/mL
Ctrough ([5]; 300 mg BID, Low-fat meal): 6570 (13%) ng/mL
t1/2 [5, 11]: 27.7 h
Ctrough [5, 11]: 11000 (23%) ng/mL
Ctrough ([5]; 450 mg BID, Low-fat meal): 11000 (35%) ng/mL
AUC [5, 12]: 166 µg·h/mL
Cmax [5, 12]: 21700 ng/mL
AUC [5, 13]: 129 µg·h/mL
Cmax [5, 13]: 15900 ng/mL
AUC [5, 14]: 204 µg·h/mL
Cmax [5, 14]: 25800 ng/mL
AUC [5, 15]: 163 µg·h/mL
Cmax [5, 15]: 18400 ng/mL
half-life ([5]; 300 mg BID, Low-fat meal): 24.6 h
half-life ([5]; 450 mg BID, Low-fat meal): 27.7 h
